A value given as a limit tells only on which side of the number the result lay.

For test [1], the target named is T1, HBV core protein (C-terminal truncated, 149 aa assembly domain) (Hepatitis B virus genotype D subtype adw, UniProt P03147, C107A/C48A/C61A).
T1 construct: The C-terminal truncated core protein containing 149 amino acids of the N-terminal assembly domain; made in house; host or cells: E. coli BL21 (DE3) Rosetta2, plasmid pET21b
As to the kind of experiment: Biochemical capsid assembly assay (fluorescence quenching). Conditions: BODIPY-FL labelled core protein, assembly started with NaCl, read after 6 min; read-out: Assembly Activity. The procedure:
Biochemical Capsid Assembly Assay
The screening for assembly effector activity was done based on a fluorescence quenching assay published by Zlotnick et al. (2007). The C-terminal truncated core protein containing 149 amino acids of the N-terminal assembly domain fused to a unique cysteine residue at position 150 and was expressed in E. coli using the pET expression system (Merck Chemicals, Darmstadt). Purification of core dimer protein was performed using a sequence of size exclusion chromatography steps. In brief, the cell pellet from 1 L BL21 (DE3) Rosetta2 culture expressing the coding sequence of core protein cloned NdeI/XhoI into expression plasmid pET21b was treated for 1 h on ice with a native lysis buffer (Qproteome Bacterial Protein Prep Kit; Qiagen, Hilden). After a centrifugation step the supernatant was precipitated during 2 h stirring on ice with 0.23 g/ml of solid ammonium sulfate. Following further centrifugation the resulting pellet was resolved in buffer A (100 mM Tris, pH 7.5; 100 mM NaCl; 2 mM DTT) and was subsequently loaded onto a buffer A equilibrated CaptoCore 700 column (GE HealthCare, Frankfurt). The column flow through containing the assembled HBV capsid was dialyzed against buffer N (50 mM NaHCO3 pH 9.6; 5 mM DTT) before urea was added to a final concentration of 3M to dissociate the capsid into core dimers for 1.5 h on ice. The protein solution was then loaded onto a 1 L Sephacryl 5300 column. After elution with buffer N core dimer containing fractions were identified by SDS-PAGE and subsequently pooled and dialyzed against 50 mM HEPES pH 7.5; 5 mM DTT. To improve the assembly capacity of the purified core dimers a second round of assembly and disassembly starting with the addition of 5 M NaCl and including the size exclusion chromatography steps described above was performed. From the last chromatography step core dimer containing fractions were pooled and stored in aliquots at concentrations between 1.5 to 2.0 mg/ml at −80° C.
Immediately before labelling the core protein was reduced by adding freshly prepared DTT in a final concentration of 20 mM. After […] on ice storage buffer and DTT was removed using a Sephadex G-25 column (GE HealthCare, Frankfurt) and 50 mM HEPES, pH 7.5. For labelling 1.6 mg/ml core protein was incubated at 4° C. and darkness overnight with BODIPY-FL maleimide (Invitrogen, Karlsruhe) in a final concentration of 1 mM. After labelling the free dye was removed by an additional desalting step using a Sephadex G-25 column. Labelled core dimers were stored in aliquots at 4° C. In the dimeric state the fluorescence signal of the labelled core protein is high and is quenched during the assembly of the core dimers to high molecular capsid structures. The screening assay was performed in black 384 well microtiter plates in a total assay volume of 10 μl using 50 mM HEPES pH 7.5 and 1.0 to 2.0 μM labelled core protein. Each screening compound was added in 8 different concentrations using a 0.5 log-unit serial dilution starting at a final concentration of 100 μM, 31.6 μM or 10 μM, In any case the DMSO concentration over the entire microtiter plate was 0.5%. The assembly reaction was started by the injection of NaCl to a final concentration of […] which induces the assembly process to approximately 25% of the maximal quenched signal. 6 min after starting the reaction the fluorescence signal was measured using a Clariostar plate reader (BMG Labtech, Ortenberg) with an excitation of 477 nm and an emission of 525 nm. As 100% and 0% assembly control HEPES buffer containing 2.5 M and 0 M NaCl was used. Experiments were performed thrice in triplicates. EC50 values were calculated by non-linear regression analysis using the Graph Pad Prism 6 software (GraphPad Software, La Jolla, USA).

The test system of a further test is HBV. In words: HBV replication assay: HBV DNA from the supernatants of HepAD38 cells. The format is cell-based. Conditions: Hepatitis B virus, 144 h, HBV DNA in supernatant by qPCR at day 6, read-out: Cell Activity. The procedure: Determination of HBV DNA from the Supernatants of HepAD38 Cells
The anti-HBV activity was analysed in the stable transfected cell line HepAD38, which has been described to secrete high levels of HBV virion particles (Ladner et al., 1997). In brief, HepAD38 cells were cultured at 37° C. at 5% CO2 and 95% humidity in 200 μl maintenance medium, which was Dulbecco's modified Eagle's medium/Nutrient Mixture F-12 (Gibco, Karlsruhe), 10% fetal bovine serum (PAN Biotech Aidenbach) supplemented with 50 μg/ml penicillin/streptomycin (Gibco, Karlsruhe), 2 mM L-glutamine (PAN Biotech, Aidenbach), 400 μg/ml G418 (AppliChem, Darmstadt) and 0.3 μg/ml tetracycline. Cells were subcultured once a week in a 1:5 ratio, but were usually not passaged more than ten times. For the assay 60,000 cells were seeded in maintenance medium without any tetracycline into each well of a 96-well plate and treated with serial half-log dilutions of test compound. To minimize edge effects the outer 36 wells of the plate were not used but were filled with assay medium. On each assay plate six wells for the virus control (untreated HepAD38 cells) and six wells for the cell control (HepAD38 cells treated with 0.3 μg/ml tetracycline) were allocated, respectively. In addition, one plate set with reference inhibitors like BAY 41-4109, entecavir, and lamivudine instead of screening compounds were prepared in each experiment. In general, experiments were performed thrice in triplicates. At day 6 HBV DNA from 100 μl filtrated cell culture supernatant (AcroPrep Advance 96 Filter Plate, […] Supor membran, PALL GmbH, Dreieich) was automatically purified on the MagNa Pure LC instrument using the MagNA Pure 96 DNA and Viral NA Small Volume Kit (Roche Diagnostics, Mannheim) according to the instructions of the manufacturer. EC50 values were calculated from relative copy numbers of HBV DNA In brief, 5 μl of the 100 μl eluate containing HBV DNA were subjected to PCR LC480 Probes Master Kit (Roche) together with 1 μM antisense primer […], 0.5 μM sense primer […], 0.3 μM hybprobes […]-FL and LC640-[…]-PH (TIBMolBiol, Berlin) to a final volume of […]. The PCR was performed on the Light Cycler 480 real time system (Roche Diagnostics, Mannheim) using the following protocol: Pre-incubation for 1 min at 95° C., amplification: 40 cycles×(10 sec at 95° C., 50 sec at 60° C., 1 sec at 70° C.), cooling for 10 sec at 40° C. Viral load was quantitated against known standards using HBV plasmid DNA of pCH-9/3091 (Nassal et al., 1990, Cell 63: 1357-1363) and the LightCycler 480 SW 1.5 software (Roche Diagnostics, Mannheim) and EC50 values were calculated using non-linear regression with GraphPad Prism 6 (GraphPad Software Inc., La Jolla, USA).

T1 sequence (P03147 1-150, looked up, stated change not applied): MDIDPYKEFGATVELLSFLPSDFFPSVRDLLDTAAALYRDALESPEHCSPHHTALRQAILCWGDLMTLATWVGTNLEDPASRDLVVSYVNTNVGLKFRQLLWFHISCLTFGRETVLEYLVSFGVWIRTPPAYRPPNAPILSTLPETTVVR

As to `CC1Cc2[nH]nc(-c3cscn3)c2CN1C(=O)c1cc2ccc(F)cn2c1` (stereo not drawn) [Example 23, 6-fluoro-2-[6-methyl-3-(1,3-thiazol-4-yl)-1H,4H,5H,6H,7H-pyrazolo[4,3-c]pyridine-5-carbonyl]indolizine], the IC50 in test [1] is less than 5 µM. For the same molecule, in the test with HBV, the EC50 is less than 1000 nM.

As to `CC1Cc2[nH]nc(-c3cscn3)c2CN1C(=O)c1cc2c(C(F)(F)F)cccn2c1` (stereo not drawn) [Example 25, 2-[6-methyl-3-(1,3-thiazol-4-yl)-1H,4H,5H,6H,7H-pyrazolo[4,3-c]pyridine-5-carbonyl]-8-(trifluoromethyl)indolizine], in test [1], the IC50 lay in the range of 5 to 10 µM. The EC50 with HBV was less than 1000 nM.

For `CN(C(=O)c1cnn2c1CN(C(=O)c1cc3c(Cl)cccn3c1)CC2)C1(COC(F)F)CC1` [Example 6, 5-(8-chloroindolizine-2-carbonyl)-N-{1-[(difluoromethoxy)methyl]cyclopropyl}-N-methyl-4H,5H,6H,7H-pyrazolo[1,5-a]pyrazine-3-carboxamide], in test [1], the IC50 was less than 5 µM. For the same molecule, in the test with HBV, the EC50 is less than 1000 nM.

In the case of `CC1Cn2ncc(C(=O)N(C)C3(COC(F)F)CC3)c2CN1C(=O)c1cc2c(Cl)cccn2c1` (stereo not drawn) [Example 9, 5-(8-chloroindolizine-2-carbonyl)-N-{1-[(difluoromethoxy)methyl]cyclopropyl}-N,6-dimethyl-4H,5H,6H,7H-pyrazolo[1,5-a]pyrazine-3-carboxamide], the IC50 in test [1] was less than 5 µM. In addition, the EC50 in the test with HBV is less than 1000 nM.

Consider `Cc1cccc2cc(C(=O)N3Cc4c(-c5cscn5)n[nH]c4CC3C)cn12` (stereo not drawn) [Example 16, 5-methyl-2-[6-methyl-3-(1,3-thiazol-4-yl)-1H,4H,5H,6H,7H-pyrazolo[4,3-c]pyridine-5-carbonyl]indolizine], for which the IC50 in test [1] lay within 5 to 10 µM. Moreover, in the test on HBV, the EC50 lay in the range of 1000 to 10000 nM.

As for `CN(C(=O)c1cnn2c1CN(C(=O)c1cc3cccc(Cl)n3c1)CC2)C1(COC(F)F)CC1` [Example 8, 5-(5-chloroindolizine-2-carbonyl)-N-{1-[(difluoromethoxy)methyl]cyclopropyl}-N-methyl-4H,5H,6H,7H-pyrazolo[1,5-a]pyrazine-3-carboxamide], the IC50 in test [1] was less than 5 µM. Also, the EC50 in the test on HBV lay in the range of 1000 to 10000 nM.

On to `CC1Cc2[nH]nc(-c3cscn3)c2CN1C(=O)c1cc2cc(Cl)c(F)cn2c1` (stereo not drawn) [Example 22, 7-chloro-6-fluoro-2-[6-methyl-3-(1,3-thiazol-4-yl)-1H,4H,5H,6H,7H-pyrazolo[4,3-c]pyridine-5-carbonyl]indolizine], for which the IC50 in test [1] lay in the range of 5 to 10 µM. The EC50 in the test with HBV was less than 1000 nM.

As to `CC1Cc2[nH]nc(-c3cscn3)c2CN1C(=O)c1cc2cccc(Cl)n2c1` (stereo not drawn) [Example 20, 5-chloro-2-[6-methyl-3-(1,3-thiazol-4-yl)-1H,4H,5H,6H,7H-pyrazolo[4,3-c]pyridine-5-carbonyl]indolizine], the IC50 in test [1] was in the range of 5 to 10 µM. The EC50 in the test on HBV was less than 1000 nM.

On to `COCC1(N(C)C(=O)c2[nH]nc3c2CN(C(=O)c2cc4cccc(Cl)n4c2)CC3)CC1` [Example 4, 5-(5-chloroindolizine-2-carbonyl)-N-[1-(methoxymethyl)cyclopropyl]-N-methyl-2H,4H,5H,6H,7H-pyrazolo[4,3-c]pyridine-3-carboxamide], for which the IC50 in test [1] was in the range of 5 to 10 µM. Also, the EC50 with HBV was less than 1000 nM.

Values taken from US20220227789A1, “NOVEL INDOLIZINE-2-CARBOXAMIDES ACTIVE AGAINST THE HEPATITIS B VIRUS (HBV)” (AiCuris GmbH & Co. KG, priority 2019, published 2022).
